Data reported in patent US20110092591A1, “PHENYL-PRENYL DERIVATIVES, OF MARINE AND SYNTHETIC ORIGIN, FOR THE TREATMENT OF COGNITIVE, NEURODEGENERATIVE OR NEURONAL DISEASES OR DISORDERS” (NOSCIRA S.A., priority 2008, published 2011).

Tests used:
Type in all cases: biochemical
[1] = molecular target: T1, Recombinant human glycogen synthase kinase 3 beta (Homo sapiens, UniProt P49841); test: GSK-3 beta inhibition assay (33P-ATP, GS-2 peptide); conditions: 0.5 h, percentage of the enzyme activity (remaining), read-out: % Act. GSK-3 beta; for remaining activity at 25 µM: compound at 25 μM; for remaining activity at 50 µM: compound at 50 μM
Protocol: The GSK-3 beta activity of the compounds of formula (I) according to the present invention was determined by incubation of a mixture of recombinant human GSK-3 enzyme, a phosphate source and GSK-3 substrate in the presence and in the absence of the corresponding test compound, and by measuring the GSK-3 activity of this mixture. The compounds where tested at final concentrations of 25 and 50 μM.
Recombinant human glycogen synthase kinase 3 beta was assayed in MOPS 11 mM, pH 7.4, EDTA 0.2 mM, EGTA 1.25 mM, MgCl2 26.25 mM and sodium orthovanadate 0.25 mM in the presence of 62.5 μM of Phospho-Glycogen Synthase Peptide-2 (GS-2), 0.5 μCi gamma-^33P-ATP and unlabelled ATP at a final concentration of 12.5 μM. The final assay volume was 20 μl. After incubation for 30 minutes at 30° C., 15 μl aliquots were spotted onto P81 phosphocellulose papers. Filters were washed four times for at least 10 minutes each and counted with 1.5 ml of scintillation cocktail in a scintillation counter.
The compounds of formula (I) of the present invention where submitted to the above indicated assay, in order to determine their GSK-3 inhibition activity. The results are indicated in Table II, in percentage of the enzyme activity.

[2] = molecular target: T1, Recombinant human glycogen synthase kinase 3 beta; test: as above
[3] = molecular target: T2, rhBACE-1 β-Secretase recombinant human (Homo sapiens, UniProt P56817); test: BACE assay (FRET, fluorogenic peptide substrate); conditions: for % BACE Activity: percentage of the enzyme activity (remaining)
T2 construct: purchased R&D Systems 931-AS
Excerpt: The aim of this assay is to determine if a compound, either synthetic or of marine origin, is a BACE-1 inhibitor, to avoid the formation of Aβ. This assay is based on FRET technology (Fluorescence Resonance Energy Transfer). FRET is used to measure cleavage of a peptide substrate, among other uses. […] When a substrate peptide cleavage occurs, the energy balance is broken and all the donor fluorescence can be observed. The increase in fluorescence is linearly related to the rate of proteolysis (Gordon, G W et al., 1998). In this assay the reaction occurs between an enzyme, purified BACE-1, and a fluorogenic peptidic substrate who present the “Swedish mutation”. The peptide cleavage by BACE-1 produces fluorescence energy and enzymatic activity can be quantified.
The reagents which are used in this assay are the following:
rhBACE-1 β-Secretase recombinant human (R&D Systems. Ref. 931-AS).
Fluorogenic Peptide Substrate IV (R&D Systems. Ref. ES004).
Beta-SECRETASE INHIBITOR H-4848. (BACHEM. Ref. H-4848.0001).
The assay is carried out in a 96 wells microplate. The final concentration of substrate is 3.5 μM per well, and the enzyme concentration is 0.5 μg/ml. The final volume of the assay is 100 μl per well and all reagents are diluted in Reaction Buffer.
The compounds are tested at a concentration of 10^−5 and 10^−6 M. The control in the assay is the commercial inhibitor β-Secretase inhibitor H-4848 from BACHEM, which is tested at 300 nM. All the samples and controls are studied by duplicate.
The plate is mixed gently and changes in the fluorescence are measured using a fluorimeter plate reader, with 320 nm excitation filter and 405 nm emission filter. The temperature should be preferably maintained between 25 and 30° C. Measurements are carried out every ten minutes during an hour. The first measure is subtracted from the last to calculate the fluorescence increase, evaluating the enzymatic activity. The 100% activity is calculated as the mean of the results of wells without sample or inhibitor.
In the cases where abnormal effects in fluorescence were detected, BACE inhibition activity was assayed using BACE-1 (beta-Secretase) FRET ASSAY KIT (Invitrogen, Ref. P2985). Fluorescence was measured with a fluorimeter plate reader, with 544 nm excitation filter and 580 nm emission filter.
Further information regarding this assay may be found in the following references, which are incorporated by reference into the present application: • Andrau, D et al; “BACE1- and BACE2-expressing human cells: characterization of beta-Amyloid precursor protein-derived catabolites, design of a novel fluorimetric assay, and identification of new in vitro inhibitors”. J Biol Chem. 2003 Jul. 11; 278(28):25859-66. • Gordon, G W et al; “Quantitative fluorescence resonance energy transfer measurements using fluorescence microscopy.” Biophys J. 1998 May; 74:2702-13.
The compounds of formula (I) of the present invention where submitted to the above indicated assay, in order to determine their BACE activity inhibition. The results are indicated in Table I, in percentage of the enzyme activity.

T1 sequence (P49841 whole entry): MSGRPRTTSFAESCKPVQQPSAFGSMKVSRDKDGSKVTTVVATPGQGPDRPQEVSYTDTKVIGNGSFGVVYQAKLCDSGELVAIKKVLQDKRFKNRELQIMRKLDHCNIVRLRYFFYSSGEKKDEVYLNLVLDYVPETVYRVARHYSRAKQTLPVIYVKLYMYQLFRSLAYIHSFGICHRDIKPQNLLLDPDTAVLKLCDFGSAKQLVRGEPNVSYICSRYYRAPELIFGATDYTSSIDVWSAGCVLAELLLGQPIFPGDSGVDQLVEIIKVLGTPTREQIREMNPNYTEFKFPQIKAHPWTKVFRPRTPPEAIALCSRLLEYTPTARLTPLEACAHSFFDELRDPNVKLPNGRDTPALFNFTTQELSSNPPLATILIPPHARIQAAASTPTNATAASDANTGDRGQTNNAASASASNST
T2 sequence (P56817 46-457 limits assumed): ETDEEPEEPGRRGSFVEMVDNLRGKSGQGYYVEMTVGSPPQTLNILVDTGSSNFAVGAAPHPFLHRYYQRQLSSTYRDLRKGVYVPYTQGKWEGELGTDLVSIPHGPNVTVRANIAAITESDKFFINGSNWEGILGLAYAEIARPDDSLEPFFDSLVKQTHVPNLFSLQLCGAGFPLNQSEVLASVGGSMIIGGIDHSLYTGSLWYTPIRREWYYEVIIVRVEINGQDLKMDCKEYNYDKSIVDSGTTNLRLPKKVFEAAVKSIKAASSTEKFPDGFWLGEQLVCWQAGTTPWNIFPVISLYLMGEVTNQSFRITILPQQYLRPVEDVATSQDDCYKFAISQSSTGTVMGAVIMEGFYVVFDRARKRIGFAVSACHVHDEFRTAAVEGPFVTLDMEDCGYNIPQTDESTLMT

Structure (SMILES)	remaining activity at 25 µM [1] [%]	remaining activity at 50 µM [1] [%]	IC50 [2] [µM]	IC50 [3] [µM]	% BACE Activity ([3]; compound at 1 μM) [%]	% BACE Activity ([3]; compound at 10 μM) [%]
CC(C)=CCC/C(C)=C/Cc1cc(C=O)ccc1O [Compound 11]	12.1	1.07	8.6	–	91 ± 6	44 ± 12
CCNC(=O)c1ccc(O)c(C/C=C(\C)CC/C=C(\C)CC/C=C(\C)CCC=C(C)C)c1 [Compound 18]	32.8	13.3	–	–	100	100
CC(C)=CCC/C(C)=C/Cc1cc(C(=O)O)ccc1O [Compound 14]	75.7	60.3	–	–	100	84 ± 6
CC(C)=CCC/C(C)=C/CC/C(C)=C/CC/C(C)=C/CC/C(C)=C/Cc1cc(O)ccc1O [Compound 4]	17.8	17.7	9.97	–	–	–
CC(C)=CCC/C(C)=C/CC/C(C)=C/CC/C(C)=C/Cc1cc(O)ccc1O [Compound 2]	37.7	5.04	12.5	–	100	13 ± 14
CC(C)=CCC/C(C)=C/CC/C(C)=C/Cc1cc(C(=O)O)ccc1O [Compound 15]	24.6	3.27	11	–	100	5 ± 9
CC(C)=CCc1cc(C(=O)O)ccc1O [Compound 6]	71.6	78	–	–	100	100

Continued, values first:

remaining activity at 25 µM [1] [%]	remaining activity at 50 µM [1] [%]	IC50 [2] [µM]	IC50 [3] [µM]	% BACE Activity ([3]; compound at 1 μM) [%]	% BACE Activity ([3]; compound at 10 μM) [%]	Structure (SMILES)
10.7	4.58	2.77	20.5 ± 2.8	87 ± 14.5	17.5 ± 0.7	CC(=O)Oc1ccc(C(=O)O)cc1C/C=C(\C)CC/C=C(\C)CC/C=C(\C)CCC=C(C)C [Compound 19]
2.22	2.01	–	–	99 ± 2	88 ± 13	CC(C)=CCC/C(C)=C/CC/C(C)=C/Cc1cc(C=O)ccc1OCc1ccccc1 [Compound 23]
100	79.9	–	–	88 ± 9	27 ± 3	COCOc1ccc(C(=O)O)cc1C/C=C(\C)CCC=C(C)C [Compound 21]
17.1	2.44	18	–	87 ± 10	33 ± 7	COCOc1ccc(C(=O)O)cc1C/C=C(\C)CC/C=C(\C)CCC=C(C)C [Compound 28]
71.4	41	–	–	100	100	CC(C)=CCC/C(C)=C/CC/C(C)=C/Cc1cc(C(=O)O)ccc1OCc1ccccc1 [Compound 26]
